Among the data in patent US20250129344A1, “MODIFIED GLUTAMATE DEHYDROGENASE AND APPLICATION THEREOF” (Hunan Lier Biotech Co., Ltd., priority 2021, published 2025) are Km and Vmax values, retold here.

What all share (experiment): Dynamic properties (Michaelis-Menten) of BvGluDH mutant, PPO reductive amination
Holding throughout (format): biochemical
Common to all, as to settings: PPO 5-100 mM, NADPH 0.15 mM, NH4Cl 50 mM, PBS pH 7.5, 30° C., diluted crude enzyme, 340 nm

Test [1] has as its system Bacillus velezensis glutamate dehydrogenase (BvGluDH, SEQ ID NO: 1) variant A175G-L104C, SEQ ID NO: 4. On the procedure:
(§1) A plurality of reaction systems (200 μL) comprising PBS of 100 mM pH 7.5 (pH was adjusted with aqueous ammonia solution), NADPH (reductive) of 0.15 mM, NH4Cl of 50 mM, diluted (500 folds) crude enzyme solution of 10% volume and the substrate PPO at various concentrations (5-100 mM) were formulated on a 96-well plate. The intensity of the UV absorption at 340 nm was detected at 30° C., and the rate of change in absorption over time (mA/min) was recorded. The obtained parameters were plugged into Michaelis-Menten equation, in which the reaction velocity was calculated with the rate of change in absorption.
(§2) The mutants were prepared with the coding nucleic acid of BvGluDH (SEQ ID NO: 1) as the template, and the enzyme activities and the dynamic parameters Vmax and Km were measured, according to the method of Example 1. The resulted mutants and the enzyme activities and the dynamic parameters thereof are shown in Table 1, and the relative enzyme activity means the percentage of the enzyme activity of the mutant to the enzyme activity of the mutant of SEQ ID NO: 3.

In test [2] the test system is Bacillus velezensis glutamate dehydrogenase (BvGluDH, SEQ ID NO: 1) variant A175G-I133V, SEQ ID NO: 6. On the procedure:
as §1, §2

In test [3] the test system is Bacillus velezensis glutamate dehydrogenase (BvGluDH, SEQ ID NO: 1) variant A175G-V173S, SEQ ID NO: 7. As to the method: as §1, §2
The test system of test [4] is Bacillus velezensis glutamate dehydrogenase (BvGluDH, SEQ ID NO: 1) variant A175G-P132L, SEQ ID NO: 5. As to the method:
as §1, §2

In test [5] the test system is Bacillus velezensis glutamate dehydrogenase (BvGluDH, SEQ ID NO: 1) variant A175G-V173G, SEQ ID NO: 8. On the procedure:
as §1, §2

Test [6] deals with Bacillus velezensis glutamate dehydrogenase (BvGluDH, SEQ ID NO: 1) variant A175G-A182R, SEQ ID NO: 11. As to the method: as §1, §2
Test [7] relates to Bacillus velezensis glutamate dehydrogenase (BvGluDH, SEQ ID NO: 1) variant A175G-G181K, SEQ ID NO: 9. As to the method:
as §1, §2

Test [8] deals with Bacillus velezensis glutamate dehydrogenase (BvGluDH, SEQ ID NO: 1) variant A175G-V173G-A182R, SEQ ID NO: 21. As to the method: as §1, §2
For test [9], the system named is Bacillus velezensis glutamate dehydrogenase (BvGluDH, SEQ ID NO: 1) variant A175G-G181R, SEQ ID NO: 10. On the procedure:
as §1, §2

For test [10], the system named is Bacillus velezensis glutamate dehydrogenase (BvGluDH, SEQ ID NO: 1) variant A175G, SEQ ID NO: 3. As to the method:
as §1, §2

On to `CP(=O)(O)CCC(=O)C(=O)O` [PPO, 2-carbonyl-4-(hydroxymethylphosphono) butyric acid], for which the Michaelis-Menten constant (Km) (commonly the concentration of substrate that gives half-maximal velocity) is 34 mM in test [1]; 43 mM in [2]; 52 mM in test [3]; 32 mM in test [4]; 53 mM in test [5]; 46 mM in test [6]. In addition, the Km is 80 mM in test [7], 23 mM in [8], 84 mM in [9] and 73 mM in test [10]. For the same molecule, the Vmax is recorded as 60 mA/min in test [1]; 59 mA/min in test [2]; 79 mA/min in [3]; 56 mA/min in test [4]; 80 mA/min in [5]; 61 mA/min in test [6]. For the same molecule, the Vmax was found to be 70 mA/min in [7], 71 mA/min in test [8], 77 mA/min in [9] and 60 mA/min in test [10].
